Measurements reported in ChEMBL document CHEMBL1914414, “Selective cholinesterase inhibition by lanostane triterpenes from fruiting bodies of Ganoderma lucidum” (Bioorg Med Chem Lett, 2011).

Columns and labels:
Cholinesterase = Cholinesterase (Homo sapiens, UniProt P06276); test: Inhibition of BChE assessed as hydrolysis of butrylcholine preincubated for 15 mins measured after 15 mins by colorimetric Ellman assay
Acetylcholinesterase = Acetylcholinesterase (Homo sapiens, UniProt P22303); test: Inhibition of AChE assessed as hydrolysis of acetylcholine preincubated for 15 mins measured after 15 mins by colorimetric Ellman assay
Chain of Acetylcholinesterase (P22303 whole entry): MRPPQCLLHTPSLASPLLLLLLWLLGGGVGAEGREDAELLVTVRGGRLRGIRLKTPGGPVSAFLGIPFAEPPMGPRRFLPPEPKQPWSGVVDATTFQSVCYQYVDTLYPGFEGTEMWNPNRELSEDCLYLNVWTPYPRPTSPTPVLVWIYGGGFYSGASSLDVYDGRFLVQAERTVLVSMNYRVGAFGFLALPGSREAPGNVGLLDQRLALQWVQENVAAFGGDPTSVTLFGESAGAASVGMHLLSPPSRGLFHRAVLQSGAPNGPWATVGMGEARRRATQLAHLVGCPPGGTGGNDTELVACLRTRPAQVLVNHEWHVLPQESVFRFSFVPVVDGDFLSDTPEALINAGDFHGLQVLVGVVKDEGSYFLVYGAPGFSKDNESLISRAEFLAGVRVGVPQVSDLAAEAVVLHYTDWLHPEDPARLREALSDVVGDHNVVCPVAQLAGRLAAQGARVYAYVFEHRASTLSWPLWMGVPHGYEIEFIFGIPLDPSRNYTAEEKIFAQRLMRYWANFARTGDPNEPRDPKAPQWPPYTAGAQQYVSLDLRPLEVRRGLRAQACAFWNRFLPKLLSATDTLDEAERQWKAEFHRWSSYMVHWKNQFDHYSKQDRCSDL

Chain of Cholinesterase (P06276 whole entry): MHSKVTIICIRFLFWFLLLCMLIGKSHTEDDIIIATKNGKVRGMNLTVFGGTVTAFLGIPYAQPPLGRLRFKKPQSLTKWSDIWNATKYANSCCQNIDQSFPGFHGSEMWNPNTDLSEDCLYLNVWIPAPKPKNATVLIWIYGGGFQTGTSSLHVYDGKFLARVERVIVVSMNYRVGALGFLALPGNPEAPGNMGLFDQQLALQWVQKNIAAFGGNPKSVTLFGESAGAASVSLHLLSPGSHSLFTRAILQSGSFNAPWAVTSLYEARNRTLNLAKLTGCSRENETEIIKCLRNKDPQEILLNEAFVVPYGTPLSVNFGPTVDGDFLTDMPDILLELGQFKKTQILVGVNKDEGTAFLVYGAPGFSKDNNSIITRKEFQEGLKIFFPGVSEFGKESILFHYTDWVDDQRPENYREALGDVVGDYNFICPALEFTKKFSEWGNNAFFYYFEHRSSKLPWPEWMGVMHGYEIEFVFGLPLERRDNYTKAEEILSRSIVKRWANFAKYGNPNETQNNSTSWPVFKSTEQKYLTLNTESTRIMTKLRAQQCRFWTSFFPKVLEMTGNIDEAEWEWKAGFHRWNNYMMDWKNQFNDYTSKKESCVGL

## CCCCOC(=O)C(C)CC(=O)C[C@@H](C)[C@H]1CC(=O)[C@@]2(C)C3=C(C(=O)[C@@H](OC(C)=O)[C@]12C)[C@@]1(C)CC[C@H](O)C(C)(C)[C@@H]1CC3=O (some centres undefined)
Cholinesterase
  IC50: > 200 µM
Acetylcholinesterase
  IC50: 9.4 µM

## CCCCOC(=O)CC[C@@H](C)[C@H]1CC[C@@]2(C)C3=C(C(=O)C[C@]12C)[C@@]1(C)CC[C@H](O)C(C)(C)[C@@H]1C[C@@H]3O
Cholinesterase
  IC50: > 200 µM
Acetylcholinesterase
  IC50: 11.6 µM

## CCCCOC(=O)CC[C@@H](C)[C@H]1CC[C@@]2(C)C3=C(C(=O)C[C@]12C)[C@@]1(C)CCC(=O)C(C)(C)[C@@H]1C[C@@H]3O
Cholinesterase
  IC50: > 200 µM
Acetylcholinesterase
  IC50: 12.3 µM

## CC(CC(=O)C[C@@H](C)[C@H]1CC(=O)[C@@]2(C)C3=C(C(=O)C[C@]12C)[C@@]1(C)CC[C@H](O)C(C)(C)[C@@H]1C[C@@H]3O)C(=O)O (some centres undefined) [GANODERIC ACID B]
Cholinesterase
  IC50: > 200 µM
Acetylcholinesterase
  IC50: 22.6 µM

## C[C@H](CC(=O)C[C@@H](C)[C@H]1CC(=O)[C@@]2(C)C3=C(C(=O)C[C@]12C)[C@@]1(C)CCC(=O)C(C)(C)[C@@H]1CC3=O)C(=O)O [GANODERIC ACID E]
Cholinesterase
  IC50: > 200 µM
Acetylcholinesterase
  IC50: 18.4 µM

## C/C(=C\CC[C@@H](C)[C@H]1CC[C@@]2(C)C3=CC[C@H]4C(C)(C)[C@@H](O)CC[C@]4(C)C3=CC[C@]12C)C(=O)O [GANODERIC ACID Y]
Cholinesterase
  IC50: > 200 µM
Acetylcholinesterase
  IC50: 21.1 µM

## C[C@H](CCC=C(CO)CO)[C@H]1CC[C@@]2(C)C3=CC[C@H]4C(C)(C)C(=O)CC[C@]4(C)C3=CC[C@]12C [GANODERIOL F]
Cholinesterase
  IC50: > 200 µM
Acetylcholinesterase
  IC50: 21.8 µM

## C[C@H](CC[C@@H](O)C(C)(C)O)[C@H]1CC[C@@]2(C)C3=CC[C@H]4C(C)(C)C(=O)CC[C@]4(C)C3=CC[C@]12C [GANODERMANONDIOL]
Cholinesterase
  IC50: > 200 µM
Acetylcholinesterase
  IC50: 25.1 µM

## C[C@H](CC[C@H](O)[C@](C)(O)CO)[C@H]1CC[C@@]2(C)C3=CC[C@H]4C(C)(C)C(=O)CC[C@]4(C)C3=CC[C@]12C [GANODERMANONTRIOL]
Cholinesterase
  IC50: > 200 µM
Acetylcholinesterase
  IC50: 22.3 µM

## C/C(=C\CC[C@@H](C)[C@H]1CC[C@@]2(C)C3=CC[C@H]4C(C)(C)[C@@H](O)CC[C@]4(C)C3=CC[C@]12C)CO [GANODEROL B]
Cholinesterase
  IC50: > 200 µM
Acetylcholinesterase
  IC50: 26.8 µM

## CC(CC(=O)C[C@@H](C)[C@H]1C[C@H](O)[C@@]2(C)C3=C(C(=O)C[C@]12C)[C@@]1(C)CCC(=O)C(C)(C)[C@@H]1CC3)C(=O)O (some centres undefined) [GANOLUCIDIC ACID A]
Cholinesterase
  IC50: > 200 µM
Acetylcholinesterase
  IC50: 23 µM

## C/C(=C\CC[C@@H](C)[C@H]1CC[C@@]2(C)C3=C(CC[C@]12C)[C@@]1(C)CC[C@H](O)C(C)(C)[C@@H]1CC3=O)CO [LUCIDADIOL]
Cholinesterase
  IC50: 156 µM
Acetylcholinesterase
  IC50: 31 µM

## C[C@H](CCC(=O)O)[C@H]1CC(=O)[C@@]2(C)C3=C(C(=O)C[C@]12C)[C@@]1(C)CCC(=O)C(C)(C)[C@@H]1C[C@@H]3O [LUCIDENIC ACID A]
Cholinesterase
  IC50: > 200 µM
Acetylcholinesterase
  IC50: 24 µM

## C[C@H](CCC(=O)O)[C@H]1CC(=O)[C@@]2(C)C3=C(C(=O)C[C@]12C)[C@@]1(C)CC[C@H](O)C(C)(C)[C@@H]1C[C@@H]3O [LUCIDENIC ACID N]
Cholinesterase
  IC50: 188 µM
Acetylcholinesterase
  IC50: 25.9 µM

## COC(=O)[C@H](C)CC(=O)C[C@@H](C)[C@H]1C[C@@H]2OC(C)(C)O[C@H]3C[C@H]4C(C)(C)C(=O)CC[C@]4(C)C4=C3[C@@]2(C)[C@]1(C)CC4=O [METHYL GANODERATE A ACETONIDE]
Cholinesterase
  IC50: > 200 µM
Acetylcholinesterase
  IC50: 18.4 µM

## COC(=O)C(C)CC(=O)C[C@@H](C)[C@H]1C[C@H](O)[C@@]2(C)C3=C(C(=O)C[C@]12C)[C@@]1(C)CCC(=O)C(C)(C)[C@@H]1C[C@@H]3O (some centres undefined) [METHYL GANODERATE A]
Cholinesterase
  IC50: > 200 µM
Acetylcholinesterase
  IC50: 30.3 µM

## COC(=O)CC[C@@H](C)[C@H]1CC(=O)[C@@]2(C)C3=C(C(=O)[C@@H](OC(C)=O)[C@]12C)[C@@]1(C)CC[C@H](O)C(C)(C)[C@@H]1CC3=O [METHYL LUCIDENATE E2]
Cholinesterase
  IC50: > 200 µM
Acetylcholinesterase
  IC50: 17.1 µM
